In patent publication US20100267561A1, “HERBICIDAL PYRIDAZINONE DERIVATIVES” (priority 2007, published 2010):

What was measured:
Format in all cases: in vivo
rice (Oryza sativa) = test: Test B flooded paddy test plant response
How it was run: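 Step one: raise plants to 2 leaves. Step two: flood pots 3 cm over the soil and apply compound into the water, keeping this depth. Step three: after 13–15 greenhouse days, score visually versus controls, 0–100, where 100 means complete control.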

[1] = system: cocklebur (Xanthium strumarium); test: Test B pre-/postemergence plant response; settings: Preemergence; for Cocklebur plant response rating: 8 g ai/ha
How it was run: (§1)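 Visual scoring from 0 (no effect) to 100 (complete control) against untreated controls was done 13 to 15 days after greenhouse treatment. Chemicals were formulated in a surfactant-containing non-phytotoxic solvent and applied to soil preemergence or to 1- to 4-leaf (2-18 cm) plants postemergence.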

[2] = system: downy bromegrass (Bromus tectorum); test: Test B pre-/postemergence plant response; settings: Preemergence; for Bromegrass, Downy plant response rating: 8 g ai/ha
How it was run: as §1

[3] = system: catchweed bedstraw (Galium aparine); test: Test B pre-/postemergence plant response; settings: Preemergence; for Galium plant response rating: 8 g ai/ha, scale 0 to 100
How it was run: as §1

[4] = system: large crabgrass (Digitaria sanguinalis); test: Test B pre-/postemergence plant response; settings: Preemergence; for Crabgrass, Large plant response rating: 8 g ai/ha
How it was run: as §1

[5] = system: green foxtail (Setaria viridis); test: Test B pre-/postemergence plant response; settings: Preemergence; for Foxtail, Green plant response rating: 8 g ai/ha
How it was run: as §1

soybean (Glycine max) = test: Test B pre-/postemergence plant response; settings: Preemergence; for Soybean plant response rating: 8 g ai/ha
How it was run: as §1

[6] = system: wheat (Triticum aestivum); test: Test B pre-/postemergence plant response; settings: Preemergence; for Wheat plant response rating: 8 g ai/ha, scale 0 to 100
How it was run: as §1

[7] = system: pigweed (Amaranthus retroflexus); test: Test B pre-/postemergence plant response; settings: Preemergence; for Pigweed plant response rating: 8 g ai/ha
How it was run: as §1

[8] = system: goosegrass (Eleusine indica); test: Test B pre-/postemergence plant response; settings: Preemergence; for Goosegrass plant response rating: 8 g ai/ha
How it was run: as §1

[9] = system: woolly cupgrass (Eriochloa villosa); test: Test B pre-/postemergence plant response; settings: Preemergence; for Cupgrass, Woolly plant response rating: 8 g ai/ha
How it was run: as §1

[10] = system: Russian thistle (Salsola iberica); test: Test B pre-/postemergence plant response; settings: Preemergence; for Russian Thistle plant response rating: 8 g ai/ha
How it was run: as §1

[11] = system: common (oilseed) sunflower (Helianthus annuus); test: Test B pre-/postemergence plant response; settings: Preemergence; for Sunflower plant response rating: 8 g ai/ha
How it was run: as §1

[12] = system: velvetleaf (Abutilon theophrasti); test: Test B pre-/postemergence plant response; settings: Preemergence; for Velvetleaf plant response rating: 8 g ai/ha, scale 0 to 100
How it was run: as §1

[13] = Flood (flooded paddy test), 62 g ai/ha, scale 0 to 100, 0 no effect, 100 complete control
[14] = Flood (flooded paddy test), 125 g ai/ha, scale 0 to 100, 0 no effect, 100 complete control
[15] = Flood (flooded paddy test), 250 g ai/ha, scale 0 to 100, 0 no effect, 100 complete control
[16] = Flood, 31 g ai/ha, scale 0 to 100
[17] = 16 g ai/ha, scale 0 to 100 (0 no effect, 100 complete control)
[18] = 31 g ai/ha, 0 to 100 scale, 0 no effect, 100 complete control
[19] = 31 g ai/ha, scale 0 to 100 (0 no effect, 100 complete control)
[20] = 62 g ai/ha, 0 to 100 scale, 0 no effect, 100 complete control

## Cc1cc(-c2ccc(Cl)cc2)nn1-c1c(OS(=O)(=O)c2cccc3ccccc23)cnn(C)c1=O [Compound 47]
Rice (Oryza sativa); [13]
  Plant response rating, Rice: 0
Rice (Oryza sativa); [14]
  Plant response rating, Rice: 0
Rice (Oryza sativa); [15]
  Plant response rating, Rice: 0
Rice (Oryza sativa); [16]
  Plant response rating, Rice: 0
[1]; [17]
  Plant response rating, Cocklebur: 0
[1]; [18]
  Plant response rating, Cocklebur: 0
[1]; 62 g ai/ha, scale 0 to 100
  Plant response rating, Cocklebur: 0
[1]; scale 0 to 100
  Cocklebur plant response rating: 0
[2]; [17]
  Plant response rating, Bromegrass, Downy: 0
[2]; [18]
  Plant response rating, Bromegrass, Downy: 0
[2]; 62 g ai/ha, scale 0 to 100
  Plant response rating, Bromegrass, Downy: 90
[2]; scale 0 to 100
  Bromegrass, Downy plant response rating: 0
[3]; [17]
  Plant response rating, Galium: 0
[3]; [18]
  Plant response rating, Galium: 0
[3]
  Galium plant response rating: 0
[4]; [17]
  Plant response rating, Crabgrass, Large: 85
[4]; [18]
  Plant response rating, Crabgrass, Large: 100
[4]; 62 g ai/ha, scale 0 to 100
  Plant response rating, Crabgrass, Large: 100
[4]; scale 0 to 100
  Crabgrass, Large plant response rating: 0
[5]; [17]
  Plant response rating, Foxtail, Green: 80
[5]; [18]
  Plant response rating, Foxtail, Green: 100
[5]; 62 g ai/ha, scale 0 to 100
  Plant response rating, Foxtail, Green: 100
[5]; scale 0 to 100
  Foxtail, Green plant response rating: 5
Soybean (Glycine max); [17]
  Plant response rating, Soybean: 0
Soybean (Glycine max); [19]
  Plant response rating, Soybean: 0
Soybean (Glycine max); 62 g ai/ha, scale 0 to 100
  Plant response rating, Soybean: 0
Soybean (Glycine max); scale 0 to 100
  Soybean plant response rating: 0
[6]; [17]
  Plant response rating, Wheat: 0
[6]; [19]
  Plant response rating, Wheat: 0
[6]; [20]
  Plant response rating, Wheat: 20
[6]
  Wheat plant response rating: 0
[7]; [19]
  Plant response rating, Pigweed: 0
[7]; 62 g ai/ha, scale 0 to 100
  Plant response rating, Pigweed: 0
[7]; scale 0 to 100
  Pigweed plant response rating: 0
[8]; [17]
  Plant response rating, Goosegrass: 98
[8]; [18]
  Plant response rating, Goosegrass: 100
[8]; 62 g ai/ha, scale 0 to 100
  Plant response rating, Goosegrass: 100
[8]; scale 0 to 100
  Goosegrass plant response rating: 70
[9]; [17]
  Plant response rating, Cupgrass, Woolly: 100
[9]; [18]
  Plant response rating, Cupgrass, Woolly: 100
[9]; 62 g ai/ha, scale 0 to 100
  Plant response rating, Cupgrass, Woolly: 100
[9]; scale 0 to 100
  Cupgrass, Woolly plant response rating: 98
[10]; [17]
  Plant response rating, Russian Thistle: 0
[10]; [19]
  Plant response rating, Russian Thistle: 0
[10]; 62 g ai/ha, scale 0 to 100
  Plant response rating, Russian Thistle: 40
[10]; scale 0 to 100
  Russian Thistle plant response rating: 0
[11]; [17]
  Plant response rating, Sunflower: 0
[11]; [19]
  Plant response rating, Sunflower: 0
[11]; 62 g ai/ha, scale 0 to 100
  Plant response rating, Sunflower: 0
[11]; scale 0 to 100
  Sunflower plant response rating: 0
[12]; [17]
  Plant response rating, Velvetleaf: 0
[12]; [19]
  Plant response rating, Velvetleaf: 0
[12]; [20]
  Plant response rating, Velvetleaf: 0
[12]
  Velvetleaf plant response rating: 0

## Cc1cc(-c2ccc(Cl)cc2)nn1-c1c(OS(=O)(=O)C(C)C)cnn(C)c1=O [Compound 50]
Rice (Oryza sativa); [13]
  Plant response rating, Rice: 0
Rice (Oryza sativa); [14]
  Plant response rating, Rice: 0
Rice (Oryza sativa); [15]
  Plant response rating, Rice: 0
Rice (Oryza sativa); [16]
  Plant response rating, Rice: 0
[1]; [17]
  Plant response rating, Cocklebur: 0
[1]; [18]
  Plant response rating, Cocklebur: 0
[1]; 62 g ai/ha, scale 0 to 100
  Plant response rating, Cocklebur: 0
[1]; scale 0 to 100
  Cocklebur plant response rating: 0
[2]; [17]
  Plant response rating, Bromegrass, Downy: 0
[2]; [18]
  Plant response rating, Bromegrass, Downy: 0
[2]; 62 g ai/ha, scale 0 to 100
  Plant response rating, Bromegrass, Downy: 0
[2]; scale 0 to 100
  Bromegrass, Downy plant response rating: 0
[3]; [17]
  Plant response rating, Galium: 0
[3]
  Galium plant response rating: 0
[4]; [17]
  Plant response rating, Crabgrass, Large: 98
[4]; [18]
  Plant response rating, Crabgrass, Large: 100
[4]; 62 g ai/ha, scale 0 to 100
  Plant response rating, Crabgrass, Large: 100
[4]; scale 0 to 100
  Crabgrass, Large plant response rating: 60
[5]; [17]
  Plant response rating, Foxtail, Green: 95
[5]; [18]
  Plant response rating, Foxtail, Green: 98
[5]; 62 g ai/ha, scale 0 to 100
  Plant response rating, Foxtail, Green: 100
[5]; scale 0 to 100
  Foxtail, Green plant response rating: 0
Soybean (Glycine max); [17]
  Plant response rating, Soybean: 50
Soybean (Glycine max); [19]
  Plant response rating, Soybean: 100
Soybean (Glycine max); 62 g ai/ha, scale 0 to 100
  Plant response rating, Soybean: 100
Soybean (Glycine max); scale 0 to 100
  Soybean plant response rating: 0
[6]; [17]
  Plant response rating, Wheat: 0
[6]; [19]
  Plant response rating, Wheat: 0
[6]; [20]
  Plant response rating, Wheat: 0
[6]
  Wheat plant response rating: 0
[7]; [17]
  Plant response rating, Pigweed: 0
[7]; [19]
  Plant response rating, Pigweed: 0
[7]; 62 g ai/ha, scale 0 to 100
  Plant response rating, Pigweed: 0
[7]; scale 0 to 100
  Pigweed plant response rating: 0
[8]; [17]
  Plant response rating, Goosegrass: 80
[8]; [18]
  Plant response rating, Goosegrass: 98
[8]; 62 g ai/ha, scale 0 to 100
  Plant response rating, Goosegrass: 100
[8]; scale 0 to 100
  Goosegrass plant response rating: 0
[9]; [17]
  Plant response rating, Cupgrass, Woolly: 75
[9]; [18]
  Plant response rating, Cupgrass, Woolly: 98
[9]; 62 g ai/ha, scale 0 to 100
  Plant response rating, Cupgrass, Woolly: 100
[9]; scale 0 to 100
  Cupgrass, Woolly plant response rating: 20
[10]; [17]
  Plant response rating, Russian Thistle: 0
[10]; [19]
  Plant response rating, Russian Thistle: 0
[10]; 62 g ai/ha, scale 0 to 100
  Plant response rating, Russian Thistle: 0
[10]; scale 0 to 100
  Russian Thistle plant response rating: 0
[11]; [17]
  Plant response rating, Sunflower: 0
[11]; [19]
  Plant response rating, Sunflower: 0
[11]; 62 g ai/ha, scale 0 to 100
  Plant response rating, Sunflower: 20
[11]; scale 0 to 100
  Sunflower plant response rating: 0
[12]; [17]
  Plant response rating, Velvetleaf: 0
[12]; [19]
  Plant response rating, Velvetleaf: 0
[12]; [20]
  Plant response rating, Velvetleaf: 0
[12]
  Velvetleaf plant response rating: 0
